Data published in patent US4760052A, “1,6-dicarba-vasopressin compounds” (Smithkline Beckman Corporation, priority 1987, dated 1988).
*1 amine or outer side, *2 acyl side, *3 side chain or, on linkers, in order; H or OH if unused. Where a SMILES comes first, the peptide text is derived from it. Bridges are numbered along the chain shown (N, C = ends). [ ]: non-standard residue; d: D form. X1 = O=C(CC1(S[*:2])CCCCC1)[*:1]

Key:
[1] = target: vasopressin receptors (V2 -receptors) (Sus scrofa, UniProt P32307); assay: biochemical
Protocol: Antagonistic activity toward the natural anti-diuretic hormone (anti ADH activity) is determined, in vitro, in the medullary tissue of hog or human kidneys and, in vivo, in the hydropenic rat.
These values represent total and non specific binding, respectively.

[2] = target: vasopressin stimulated adenylate cyclase; assay: vasopressin stimulated adenylate cyclase activity, kidney medullary membrane; format: biochemical; conditions: Swine; antagonism of vasopressin stimulated adenylate cyclase
Protocol: In the test procedure for assay of adenylate cyclase activity, the amount of ^32 P/cAMP formed in the absence of medullary membrane is determined (blank). The blank value is subtracted from all experimental data. The compound is tested for its effect on basal adenylate cyclase activity and/or on vasopressin stimulated activity. Each determination is carried out in triplicate. The Ka value is derived from a Lineweaver-Burkeplot. Rel. Vmax =(Vmax drug/Vmax vasopressin) x 100. Ki =I/[Ka'/Ka)-1] where I is the concentration of the antagonist and Ka' and Ka are the concentrations of vasopressin required to give half maximal activity of adenylate cyclase in the presence and absence of antagonist, respectively.

hydropenic rat = assay: Hydropenic Rat Screen (anti-ADH activity in vivo); conditions: intraperitoneal, dose required to lower urine osmolality to 300 m-Osmoles/kg
Protocol: The assay for anti-ADH activity in vivo is the hydropenic rat protocol described below:
Food and water are removed from male rats approximately 18 hours prior to testing. Animals are housed 4 per metabolism cage. At 0 hour, the test compound is administered intraperitoneally to the test group and an equivalent volume of vehicle is administered to both control groups (fasted and non-fasted). Urine volume and osmolality are measured every hour for 4 hours. Test values are recorded as ml of urine excreted (cumulative), mEg/rat electrolyte excreted, mg/rat urea excreted, and osmolality in milli-Osmoles/kg H2 O. A […] is used to determine significance. ED300 is defined as the dose of compound (μg/kg) required to lower urine osmolality to 300 m-Osmoles/kg.

Chain of vasopressin receptors (V2 -receptors) (P32307 whole entry): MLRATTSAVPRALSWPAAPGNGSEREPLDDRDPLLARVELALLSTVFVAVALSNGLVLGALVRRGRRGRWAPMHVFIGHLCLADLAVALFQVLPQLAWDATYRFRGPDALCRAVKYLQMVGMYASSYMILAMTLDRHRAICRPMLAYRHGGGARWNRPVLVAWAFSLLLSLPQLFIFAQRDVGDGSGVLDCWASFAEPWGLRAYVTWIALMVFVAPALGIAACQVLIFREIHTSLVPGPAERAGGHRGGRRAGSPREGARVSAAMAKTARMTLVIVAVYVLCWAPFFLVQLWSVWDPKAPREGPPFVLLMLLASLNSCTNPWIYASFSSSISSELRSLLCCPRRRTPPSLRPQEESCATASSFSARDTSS

Ki [2] | Structure (SMILES) | Kb [1] | ED300 (hydropenic rat)
– | CCOc1ccc(C[C@H]2NC(=O)CC3(CCCCC3)SSC[C@@H](C(=O)N3CCC[C@H]3C(=O)N[C@@H](CCCNC(=N)N)C(N)=O)NC(=O)[C@H](CC(N)=O)NC(=O)[C@H](C(C)C)NC(=O)[C@H](Cc3ccccc3)NC2=O)cc1 [A, [1(mercapto-β,cyclopentamethylenepropionic acid)2-(O--ethylD-tyrosine)-4-valine-8-arginine-9-desglycine]vasopressin, reference compound] ([dY](Et)FVNCPR-NH2; linker N-5 via X1) | 12 nM | –
– | CCOc1ccc(C[C@H]2NC(=O)CC3(CCCCC3)SSC[C@H](C(=O)N3CCC[C@H]3C(=O)N[C@@H](CCCNC(=N)N)C(N)=O)NC(=O)[C@H](CC(N)=O)NC(=O)[C@H](C(C)C)NC(=O)[C@H](Cc3ccccc3)NC2=O)cc1 [B, reference compound] ([dY](Et)FVN[dC]PR-NH2; linker N-5 via X1) | 170 nM | –
4.3 nM | CCOc1ccc(C[C@H]2NC(=O)CC3(CCCCC3)CCC[C@@H](C(=O)N3CCC[C@H]3C(=O)N[C@@H](CCCNC(=N)N)C(N)=O)NC(=O)[C@H](CC(N)=O)NC(=O)[C@H](C(C)C)NC(=O)[C@H](Cc3ccccc3)NC2=O)cc1 [Compound C, [1,6(6,6-cyclopentamethylene-2-amino-L-suberic acid)2-(O--ethylD-tyrosine)-4-valine-9-desglycine]vasopressin] | 8.2 nM | 8.9 µg/kg
– | CCOc1ccc(C[C@H]2NC(=O)CC3(CCCCC3)CCC[C@H](C(=O)N3CCC[C@H]3C(=O)N[C@@H](CCCNC(=N)N)C(N)=O)NC(=O)[C@H](CC(N)=O)NC(=O)[C@H](C(C)C)NC(=O)[C@H](Cc3ccccc3)NC2=O)cc1 [Compound D, [1,6(6,6-cyclopentamethylene-2-amino-D-suberic acid)2-(O--ethy1D-tyrosine)-4-valine-9-desglycine]vasopressin] | 72 nM | –
